Reference: patent US7192906B2, “Substituted pyrazole derivatives, production process thereof, and herbicide compositions containing the derivatives” (SDS Biotech K.K., priority 2001, dated 2007)

Key:
Type in all cases: in vivo
[1] = test system: Digitaria adscendens; experiment: Test Example 2 upland soil treatment; conditions: Table 5, upland soil treatment, index 0-5
Summary of the method: (§1)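 Dose of 1 kg active ingredient per hectare, given as diluted wettable powder to the soil surface the day after sowing in upland soil (~1 cm cover). Effect rated 21 days on: 5 for ≥90%, 4 for 70–<90%, down to 0 for <10%.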

[2] = test system: Stellaria media; experiment: Test Example 2 upland soil treatment; conditions: Table 5, upland soil treatment, index 0-5
Summary of the method: as §1

[3] = test system: Setaria viridis; experiment: Test Example 2 upland soil treatment; conditions: Table 5, upland soil treatment, index 0-5
Summary of the method: as §1

[4] = test system: Chenopodium album; experiment: Test Example 2 upland soil treatment; conditions: Table 5, upland soil treatment, index 0-5
Summary of the method: as §1

[5] = test system: Rice (Oryza sativa); experiment: Test Example 3 paddy field treatment, crop phytotoxicity; conditions: Table 6, paddy field treatment, transplanted rice, active ingredient 1 kg per hectare, 21st day after dropping, index 0-5
Summary of the method: (§2)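 Scoring used a 0–5 scale of herbicidal effect or phytotoxicity, from <10% to ≥90%, taken 21 days after treatment. Treatment was 1 kg a.i./ha as diluted wettable powder dripped onto 4 cm-deep flooded pots sown with the weeds, 10 days after transplanting two-leaf Koshihikari rice.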

[6] = test system: wheat (Triticum aestivum); experiment: Test Example 2 upland soil treatment, crop phytotoxicity; conditions: Table 5, upland soil treatment, index 0-5
Summary of the method: as §1

[7] = test system: soybean (Glycine max); experiment: as above; conditions: Table 5, upland soil treatment, index 0-5
Summary of the method: as §1

[8] = test system: Echinochloa crusgalli; experiment: Test Example 3 paddy field treatment; conditions: Table 6, paddy field treatment, active ingredient 1 kg per hectare, 21st day after dropping, index 0-5
Summary of the method: as §2

[9] = test system: Scirpus juncoides; experiment: Test Example 3 paddy field treatment; conditions: Table 6, paddy field treatment, active ingredient 1 kg per hectare, 21st day after dropping, index 0-5
Summary of the method: as §2

[10] = test system: Monochoria vaginalis; experiment: Test Example 3 paddy field treatment; conditions: Table 6, paddy field treatment, active ingredient 1 kg per hectare, 21st day after dropping, index 0-5
Summary of the method: as §2

[11] = test system: Ammannia multiflora; experiment: Test Example 3 paddy field treatment; conditions: Table 6, paddy field treatment, active ingredient 1 kg per hectare, 21st day after dropping, index 0-5
Summary of the method: as §2

[12] = test system: wheat (Triticum aestivum); experiment: Test Example 1 upland field foliage treatment, crop phytotoxicity; conditions: Table 4, upland field foliage treatment, index 0-5
Summary of the method: (§3)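 A leaf-surface application at an active-ingredient rate of 1 kg per hectare was made to 14-day-old plants in upland soil. Evaluation followed 21 days later using a six-grade scale, where grade 5 means at least 90% kill or phytotoxicity.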

[13] = test system: soybean (Glycine max); experiment: as above; conditions: Table 4, upland field foliage treatment, index 0-5
Summary of the method: as §3

[14] = test system: Digitaria adscendens; experiment: Test Example 1 upland field foliage treatment; conditions: Table 4, upland field foliage treatment, index 0-5
Summary of the method: as §3

[15] = test system: Stellaria media; experiment: Test Example 1 upland field foliage treatment; conditions: Table 4, upland field foliage treatment, index 0-5
Summary of the method: as §3

[16] = test system: Setaria viridis; experiment: Test Example 1 upland field foliage treatment; conditions: Table 4, upland field foliage treatment, index 0-5
Summary of the method: as §3

[17] = test system: Chenopodium album; experiment: Test Example 1 upland field foliage treatment; conditions: Table 4, upland field foliage treatment, index 0-5
Summary of the method: as §3

Compound	Herbicidal activity DA: Digitaria adscendens [1]	Herbicidal activity SM: Stellaria media [2]	Herbicidal activity SV: Setaria viridis [3]	Herbicidal activity CA: Chenopodium album [4]	Herbicidal activity (phytotoxicity) OS [5]	Herbicidal activity (phytotoxicity) TA: Wheat (Triticum aestivum) [6]	Herbicidal activity (phytotoxicity) GM: Soybean (Glycine max) [7]	Herbicidal activity EC [8]	Herbicidal activity SJ [9]	Herbicidal activity MV [10]	Herbicidal activity AM [11]	Herbicidal activity (phytotoxicity) TA: Wheat (Triticum aestivum) [12]	Herbicidal activity (phytotoxicity) GM: Soybean (Glycine max) [13]	Herbicidal activity DA: Digitaria adscendens [14]	Herbicidal activity SM: Stellaria media [15]	Herbicidal activity SV: Setaria viridis [16]	Herbicidal activity CA: Chenopodium album [17]
CNC(=O)C(Cn1cc(C)c(-c2cc(C(F)(F)F)ccc2F)n1)=NOC [Compound 86]	5 (herbicidal effect of not less than 90%, or phytotoxicity of 90% or more)	5 (herbicidal effect of not less than 90%, or phytotoxicity of 90% or more)	4 (herbicidal effect of not less than 70% and less than 90%, or phytotoxicity of 70% or more and less than 90%)	5 (herbicidal effect of not less than 90%, or phytotoxicity of 90% or more)	0 (herbicidal effect of not less than 0% and less than 10%, or phytotoxicity of 0% or more and less than 10%)	0 (herbicidal effect of not less than 0% and less than 10%, or phytotoxicity of 0% or more and less than 10%)	1 (herbicidal effect of not less than 10% and less than 30%, or phytotoxicity of 10% or more and less than 30%)	5 (herbicidal effect of not less than 90%, or phytotoxicity of 90% or more)	4 (herbicidal effect of not less than 70% and less than 90%, or phytotoxicity of 70% or more and less than 90%)	5 (herbicidal effect of not less than 90%, or phytotoxicity of 90% or more)	5 (herbicidal effect of not less than 90%, or phytotoxicity of 90% or more)	0 (herbicidal effect of not less than 0% and less than 10%, or phytotoxicity of 0% or more and less than 10%)	0 (herbicidal effect of not less than 0% and less than 10%, or phytotoxicity of 0% or more and less than 10%)	5 (herbicidal effect of not less than 90%, or phytotoxicity of 90% or more)	4 (herbicidal effect of not less than 70% and less than 90%, or phytotoxicity of 70% or more and less than 90%)	3 (herbicidal effect of not less than 50% and less than 70%, or phytotoxicity of 50% or more and less than 70%)	4 (herbicidal effect of not less than 70% and less than 90%, or phytotoxicity of 70% or more and less than 90%)
CNC(=O)C(Cn1cc(C)c(-c2cc(F)c(OC)c(F)c2)n1)=NOC [Compound 92]	5 (herbicidal effect of not less than 90%, or phytotoxicity of 90% or more)	5 (herbicidal effect of not less than 90%, or phytotoxicity of 90% or more)	5 (herbicidal effect of not less than 90%, or phytotoxicity of 90% or more)	5 (herbicidal effect of not less than 90%, or phytotoxicity of 90% or more)	0 (herbicidal effect of not less than 0% and less than 10%, or phytotoxicity of 0% or more and less than 10%)	0 (herbicidal effect of not less than 0% and less than 10%, or phytotoxicity of 0% or more and less than 10%)	0 (herbicidal effect of not less than 0% and less than 10%, or phytotoxicity of 0% or more and less than 10%)	5 (herbicidal effect of not less than 90%, or phytotoxicity of 90% or more)	5 (herbicidal effect of not less than 90%, or phytotoxicity of 90% or more)	5 (herbicidal effect of not less than 90%, or phytotoxicity of 90% or more)	5 (herbicidal effect of not less than 90%, or phytotoxicity of 90% or more)	0 (herbicidal effect of not less than 0% and less than 10%, or phytotoxicity of 0% or more and less than 10%)	0 (herbicidal effect of not less than 0% and less than 10%, or phytotoxicity of 0% or more and less than 10%)	5 (herbicidal effect of not less than 90%, or phytotoxicity of 90% or more)	5 (herbicidal effect of not less than 90%, or phytotoxicity of 90% or more)	5 (herbicidal effect of not less than 90%, or phytotoxicity of 90% or more)	5 (herbicidal effect of not less than 90%, or phytotoxicity of 90% or more)
CCc1cn(CC(=NOC)C(=O)NC)nc1-c1ccccc1 [Compound 98]	4 (herbicidal effect of not less than 70% and less than 90%, or phytotoxicity of 70% or more and less than 90%)	5 (herbicidal effect of not less than 90%, or phytotoxicity of 90% or more)	3 (herbicidal effect of not less than 50% and less than 70%, or phytotoxicity of 50% or more and less than 70%)	4 (herbicidal effect of not less than 70% and less than 90%, or phytotoxicity of 70% or more and less than 90%)	0 (herbicidal effect of not less than 0% and less than 10%, or phytotoxicity of 0% or more and less than 10%)	0 (herbicidal effect of not less than 0% and less than 10%, or phytotoxicity of 0% or more and less than 10%)	0 (herbicidal effect of not less than 0% and less than 10%, or phytotoxicity of 0% or more and less than 10%)	5 (herbicidal effect of not less than 90%, or phytotoxicity of 90% or more)	4 (herbicidal effect of not less than 70% and less than 90%, or phytotoxicity of 70% or more and less than 90%)	5 (herbicidal effect of not less than 90%, or phytotoxicity of 90% or more)	4 (herbicidal effect of not less than 70% and less than 90%, or phytotoxicity of 70% or more and less than 90%)	0 (herbicidal effect of not less than 0% and less than 10%, or phytotoxicity of 0% or more and less than 10%)	0 (herbicidal effect of not less than 0% and less than 10%, or phytotoxicity of 0% or more and less than 10%)	4 (herbicidal effect of not less than 70% and less than 90%, or phytotoxicity of 70% or more and less than 90%)	4 (herbicidal effect of not less than 70% and less than 90%, or phytotoxicity of 70% or more and less than 90%)	3 (herbicidal effect of not less than 50% and less than 70%, or phytotoxicity of 50% or more and less than 70%)	4 (herbicidal effect of not less than 70% and less than 90%, or phytotoxicity of 70% or more and less than 90%)
